In article PMC5175178, “Development of an in-vivo active reversible butyrylcholinesterase inhibitor” (Scientific Reports, 2016):

What was measured:
huBChE = target: T1, huBChE (Homo sapiens, UniProt P06276); assay: Kinetic studies for huBChE inhibition, stopped-flow progress curves; format: biochemical; conditions: hydrolysis by huBChE, pH 8
T1 construct: made in house
Method: This situation is referred to as tight binding inhibition. […] Of note, a high enzyme concentration was used in order to investigate the time-dependent inhibition and to reach the plateau of the reaction, which allowed precise quantification of the substrate concentration. […] The curves were analyzed simultaneously using the ENZO application[36].
Briefly, the time-course of yellow color formation was followed on a Bio-logic SFM-2000 stopped flow apparatus at 25 °C. […] The buffer solutions were injected into a mixing chamber using syringes. […] The progress curves obtained were analyzed simultaneously, using the ENZO application[36], which can derive and numerically solve a system of differential equations, and fit their coefficients. Several reaction mechanisms were tested.

Caco-2 cells = assay: Caco-2 monolayer bidirectional permeability assay; conditions: ABCB1 marker substrate, no inhibitor
Method: (§1) They were grown on Transwell® culture inserts with a polycarbonate membrane (diameter, 12 mm; pore size, 0.4 µm). 50,000 cells/filter membranes were used for seeding and the medium was changed every two days. At day 18, transepithelial electrical resistance (TEER) was measured for each filter with Caco-2 cell monolayers. […] The samples were acidified by dilution with the same volume of 0.01M HCl before fluorescence measurements.
(§2) Ringer buffer with 10 mM d-glucose or 10 mM mannitol on apical and basolateral side of the tissue, respectively, was used as an incubation saline. […] The stock solutions were added either to the apical or to the basolateral compartment to obtain bidirectional permeability measurements. Six samples were withdrawn in 20 min intervals. Each time 300 µl was taken from the 1500 µL basolateral acceptor compartment and 100 µL from the 500 µL apical acceptor compartment. These volumes were immediately replaced by the appropriate fresh incubation saline. […] All apparent permeability coefficients were calculated as described previously^24.

ABCB1 = assay: Caco-2 monolayer bidirectional permeability assay; conditions: human; for Papp A→B at 120 min: Caco-2, apical-to-basolateral apparent permeability coefficient; for Papp B→A at 120 min: Caco-2, basolateral-to-apical apparent permeability coefficient
Method: as §1, §2

T1 sequence (P06276 29-602): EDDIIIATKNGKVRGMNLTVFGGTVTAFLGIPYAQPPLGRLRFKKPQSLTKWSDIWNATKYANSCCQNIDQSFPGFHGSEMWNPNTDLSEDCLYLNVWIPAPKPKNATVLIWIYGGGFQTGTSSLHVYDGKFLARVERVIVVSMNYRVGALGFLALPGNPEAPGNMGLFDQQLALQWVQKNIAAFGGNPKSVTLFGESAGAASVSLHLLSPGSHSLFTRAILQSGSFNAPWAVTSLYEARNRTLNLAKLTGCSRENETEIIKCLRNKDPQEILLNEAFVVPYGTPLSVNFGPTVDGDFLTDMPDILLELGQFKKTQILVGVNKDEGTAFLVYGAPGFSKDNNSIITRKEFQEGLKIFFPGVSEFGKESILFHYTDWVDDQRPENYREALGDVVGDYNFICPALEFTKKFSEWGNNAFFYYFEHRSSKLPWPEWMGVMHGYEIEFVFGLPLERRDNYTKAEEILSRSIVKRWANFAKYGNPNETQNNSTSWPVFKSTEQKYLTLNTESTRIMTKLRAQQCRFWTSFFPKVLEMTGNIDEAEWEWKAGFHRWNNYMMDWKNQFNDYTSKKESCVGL

Compound	kcat (s^-1) ± SD (huBChE)	Km (huBChE; read-out: Km (µM) ± SD)	efflux ratio (Caco-2 cells)	efflux ratio at 120 min (ABCB1; Caco-2)	Papp A→B at 120 min (ABCB1; after inhibition with PSC833)	Papp A→B at 120 min (ABCB1; no inhibitor)	Papp B→A at 120 min (ABCB1; after inhibition with PSC833)	Papp B→A at 120 min (ABCB1; no inhibitor)
CCCC(=O)SCC[N+](C)(C)C.[I-] [BTCI, butyrylthiocholine iodide]	852 ± 8 s⁻¹	38.5 ± 0.3 µM	–	–	–	–	–	–
COC(=O)c1ccccc1-c1c2ccc(=N)cc-2oc2cc(N)ccc12 [Rhodamine123]	–	–	7.3	2.5	1 ×10⁻⁶ cm/s	1.1 ×10⁻⁶ cm/s	2.5 ×10⁻⁶ cm/s	7.7 ×10⁻⁶ cm/s
